# Source: ChEMBL document CHEMBL3632464, “The quorum-sensing inhibiting effects of stilbenoids and their potential structure-activity relationship” (2015)
# Active and inactive are the calls of the source. The rule behind the calls is not given here.
# Tests used:
# [1] = tested on: Chromobacterium violaceum; assay: Inhibition of Quorum sensing system in Chromobacterium violaceum CV026 after 24 hrs by agar-well diffusion method
# [2] = tested on: Chromobacterium violaceum; assay: Inhibition of Quorum sensing system in Chromobacterium violaceum CV026 assessed as inhibition of violacein synthesis at 25 to 150 uM after 18 hrs by spectrophotometric assay
# [3] = tested on: Chromobacterium violaceum; assay: Inhibition of Quorum sensing system in Chromobacterium violaceum assessed as inhibition of violacein synthesis; settings: concentration not given here
# Pseudomonas aeruginosa [4] = assay: Antibacterial activity in Pseudomonas aeruginosa PAO1 at 400 uM measured every 2 hrs for 24 hrs by microplate reader analysis; format: functional, organism-based
# [5] = tested on: Chromobacterium violaceum; assay: Antibacterial activity in Chromobacterium violaceum CV026 for 16 hrs; format: functional; settings: CV026, 16 h
# Pseudomonas aeruginosa [6] = assay: Decrease in rhII gene expression in Pseudomonas aeruginosa PAO1 at 400 uM by RT-PCR analysis; format: functional, organism-based
# [7] = tested on: Pseudomonas aeruginosa PAO1; assay: Inhibition of Quorum sensing system in Pseudomonas aeruginosa PAO1 assessed as inhibition of pyocyanin production at sub-MIC concentration after 16 to 18 hrs by spectrophotometric assay
# Pseudomonas aeruginosa [8] = assay: Antibacterial activity in Pseudomonas aeruginosa PAO1 for 16 hrs; format: functional; settings: PAO1, 16 h
# [9] = tested on: Pseudomonas aeruginosa PAO1; assay: Inhibition of Quorum sensing system in Pseudomonas aeruginosa PAO1 assessed as inhibition of pyocyanin production at 400 uM after 16 to 18 hrs by spectrophotometric assay
# Pseudomonas aeruginosa [10] = assay: Decrease in lasI gene expression in Pseudomonas aeruginosa PAO1 at 400 uM by RT-PCR analysis relative to control; format: functional
# Pseudomonas aeruginosa [11] = assay: Decrease in rhIR gene expression in Pseudomonas aeruginosa PAO1 at 400 uM by RT-PCR analysis; format: functional, organism-based
# Pseudomonas aeruginosa [12] = assay: Decrease in lasR gene expression in Pseudomonas aeruginosa PAO1 at 400 uM by RT-PCR analysis; format: functional, organism-based
# [13] = tested on: Chromobacterium violaceum; assay: Inhibition of Quorum sensing system in Chromobacterium violaceum CV026 at 1 to 4 mg/ml after 24 hrs by agar-well diffusion method
# [14] = tested on: Chromobacterium violaceum; assay: Inhibition of Quorum sensing system in Chromobacterium violaceum CV026 assessed as inhibition of violacein synthesis at >100 uM after 18 hrs by spectrophotometric assay
# [15] = tested on: Chromobacterium violaceum; assay: Antibacterial activity in Chromobacterium violaceum CV026 at >50 ug/well by agar-well diffusion method; format: functional, organism-based
# [16] = tested on: Pseudomonas aeruginosa PAO1; assay: Inhibition of Quorum sensing system in Pseudomonas aeruginosa PAO1 assessed as inhibition of swarming motility at 100 uM after 16 hrs
# [17] = tested on: Chromobacterium violaceum; assay: Antibacterial activity in Chromobacterium violaceum CV026 at 0.6 mg/ml by agar-well diffusion method; format: functional, organism-based
# [18] = tested on: Chromobacterium violaceum; assay: Inhibition of Quorum sensing system in Chromobacterium violaceum CV026 assessed as inhibition of violacein synthesis at 150 uM after 18 hrs by spectrophotometric assay
# [19] = tested on: Chromobacterium violaceum; assay: Inhibition of Quorum sensing system in Chromobacterium violaceum CV026 assessed as violacein synthesis at 25 and 50 uM after 18 hrs by spectrophotometric assay
# [20] = tested on: Chromobacterium violaceum; assay: Antibacterial activity in Chromobacterium violaceum CV026 at 100 ug/well by agar-well diffusion method; format: functional, organism-based
# [21] = tested on: Chromobacterium violaceum; assay: Inhibition of Quorum sensing system in Chromobacterium violaceum CV026 assessed as inhibition of violacein synthesis at 75 uM after 18 hrs by spectrophotometric assay
# [22] = tested on: Chromobacterium violaceum; assay: Inhibition of Quorum sensing system in Chromobacterium violaceum CV026 assessed as inhibition of violacein synthesis at 125 uM after 18 hrs by spectrophotometric assay
compound,measurement,setting,value
COc1ccc(CCc2cc(OC)c(OC)c(OC)c2)cc1OC,inhibition,[1],inactive
Oc1ccc(/C=C/c2cc(O)cc(O)c2)cc1 [RESVERATROL],inhibition,[2],Active
same,inhibition,[3],70%
same,Activity,Pseudomonas aeruginosa [4],inactive
same,MIC,[5],150 µg/mL
same,inhibition,Pseudomonas aeruginosa [6],Active
same,inhibition,[7],Active
same,MIC,Pseudomonas aeruginosa [8],> 1000 µg/mL
same,inhibition,[9],59.3%
same,fold change (FC),Pseudomonas aeruginosa [10],2
same,inhibition,Pseudomonas aeruginosa [11],Active
same,inhibition,Pseudomonas aeruginosa [12],Active
same,inhibition,[13],Active
same,inhibition,[14],> 80%
same,Activity,[15],Active
same,inhibition,[16],Active
COc1ccc(CCc2cc(O)cc(O)c2)cc1OC,inhibition,[1],inactive
COc1c(O)cc2ccc3c(OC)c(O)ccc3c2c1OC,inhibition,[1],inactive
COc1ccc(CCc2cc(OC)c(O)c(OC)c2)cc1O,inhibition,[1],inactive
COc1ccc(CCc2cc(OC)c(OC)c(OC)c2)cc1O,inhibition,[1],inactive
GENTAMICIN,Activity,[17],Active
COc1cc2ccc3c(OC)c(O)ccc3c2c(OC)c1OC,inhibition,[1],inactive
Oc1cc(O)cc(/C=C/c2ccc(O)cc2O)c1 [OXYRESVERATROL],inhibition,[2],Active
same,Activity,Pseudomonas aeruginosa [4],inactive
same,MIC,[5],250 µg/mL
same,inhibition,Pseudomonas aeruginosa [6],Active
same,inhibition,[7],Active
same,MIC,Pseudomonas aeruginosa [8],> 1000 µg/mL
same,inhibition,[9],50.2%
same,fold change (FC),Pseudomonas aeruginosa [10],3
same,inhibition,Pseudomonas aeruginosa [11],Active
same,inhibition,[18],86%
same,inhibition,Pseudomonas aeruginosa [12],Active
same,inhibition,[13],Active
same,inhibition,[16],Active
COc1cc(/C=C/c2ccc(O)cc2)cc(OC)c1,inhibition,[1],inactive
Oc1cc(O)cc(/C=C/c2ccc(O)c(O)c2)c1 [PICEATANNOL],Activity,Pseudomonas aeruginosa [4],inactive
same,MIC,[5],250 µg/mL
same,inhibition,[19],inactive
same,inhibition,Pseudomonas aeruginosa [6],Active
same,inhibition,[7],Active
same,MIC,Pseudomonas aeruginosa [8],> 1000 µg/mL
same,inhibition,[9],37.1%
same,Activity,[20],Active
same,inhibition,[21],Active
same,fold change (FC),Pseudomonas aeruginosa [10],5
same,inhibition,Pseudomonas aeruginosa [11],Active
same,inhibition,[18],73%
same,inhibition,Pseudomonas aeruginosa [12],Active
same,inhibition,[22],46%
same,inhibition,[13],Active
same,inhibition,[16],Active
